Laboratory results from patent publication US20020197286A1, “Method for preventing and treating skin aging” (priority 2001, published 2002).
Where two headings read alike, the source gives them in different places.

Experiments:
Plasma protein binding = assay type: in vitro ADME; conditions: human
Excerpt: (§1) Volume of distribution of norethindrone and EE ranges from 2 to 4 L/kg. Plasma protein binding of both steroids is extensive (>95%); norethindrone binds to both albumin and SHBG, whereas EE binds only to albumin.

[1] = Absorption and bioavailability after oral administration of femhrt ⅕ / NA/EE tablets; assay type: in vivo; conditions: for bioavailability: human, after oral dosing, first-pass metabolism, read-out: absolute bioavailability
Protocol: The term “effective dose” means the amount of a progestin and an estrogen required to delay the onset or treat symptoms manifested by skin aging or acne in a particular patient. […] Norethindrone acetate and EE are rapidly absorbed from femhrt ⅕ tablets, with maximum plasma concentrations of norethindrone and EE generally occurring 1 to 2 hours postdose. […] For example, a method for preventing and treating acne in a patient in need of treatment comprising administering an effective amount of Estrostep which contains 1 mg NA and a gradually increasing dose of ethinyl estradiol; 20 mcg×5 days, 30 mcg×7 days, and 35 mcg×9 days in a pharmaceutically acceptable carrier. Other dosage forms may be administered.
Norethindrone acetate and EE are rapidly absorbed from femhrt ⅕ tablets, with maximum plasma concentrations of norethindrone and EE generally occurring 1 to 2 hours postdose. […] The extent of norethindrone absorption is increased by 27% following administration of NA/EE tablets with food.

[2] = Population pharmacokinetic analysis of NA/EE tablets; conditions: for average steady-state concentrations (Css): femhrt ⅕ (1 mg NA/5 mcg EE), estimated from population pharmacokinetic analysis
Protocol: However, the multiple-dose pharmacokinetics were studied at a dose of 1 mg NA/10 mcg EE in 18 postmenopausal women.

[3] = Multiple-dose pharmacokinetics of 1 mg NA/10 mcg EE tablets in 18 postmenopausal women; assay type: in vivo, human; conditions: for Tmax / Cmax / AUC(0-t) / half-life: female, human; for AUC(0-t): read-out: AUC(0-24); for half-life: read-out: t½ (converted)
[4] = Distribution: volume of distribution; conditions: human, in vivo
Excerpt: as §1

[5] = plasma, oral, Single-Dose (Day 1), 1 mg NA/10 mcg EE tablets, Mean (SD)
[6] = plasma, oral, Steady-State (Day 87), 1 mg NA/10 mcg EE tablets, Mean (SD)

**Q.** For `C#C[C@]1(O)CC[C@H]2C3CCc4cc(O)ccc4[C@H]3CCC21C` (stereo partly drawn) [Ethinyl Estradiol], which fraction unbound (Plasma protein binding) is on record?
**A.** < 0.05

**Q.** What about the bioavailability ([1]; in vivo) of the same compound?
**A.** ~55%

**Q.** What about the “effect of high fat meal on absorption” value ([1]; in vivo) of the same compound?
**A.** decreases rate but not extent

**Q.** What about the “average steady-state concentrations (Css)” value [2] of the same compound?
**A.** 0.0114 ng/mL

**Q.** And the “dose proportionality of mean steady-state plasma concentrations” value ([2]; in vivo)?
**A.** proportional to dose

**Q.** And the “dose proportionality of steady-state concentrations” value ([2]; in vivo)?
**A.** less than proportional increase

**Q.** And the “effect of age on pharmacokinetics” value ([2]; in vivo)?
**A.** not affected by age

**Q.** And the Tmax ([3]; in vivo, Tmax)?
**A.** 2.2 h

**Q.** What about the Vd [4] of the same compound?
**A.** 2 to 4 L/kg

**Q.** For `C#C[C@]1(OC(C)=O)CC[C@H]2C3CCC4=CC(=O)CCC4[C@H]3CCC21C` (stereo partly drawn) [NA, (17-alpha)-17-(acetyloxy)-19-norpregna-4-en-20-yn-3-one], which deacetylation to norethindrone ([1]; in vivo, po) is on record?
**A.** completely and rapidly deacetylated

**Q.** What about the “effect of age on pharmacokinetics” value ([2]; in vivo) of the same compound?
**A.** not affected by age

**Q.** What does the source list for `C#C[C@]1(O)CC[C@H]2[C@@H]3CCC4=CC(=O)CC[C@@H]4[C@H]3CC[C@@]21C` [Norethindrone, norethindrone]?
**A.** fraction unbound (Plasma protein binding): < 0.05; increase of extent of absorption with food ([1]; NA/EE tablets with food): 27%; bioavailability ([1]; in vivo): ~64%; dose proportionality of mean steady-state concentrations ([2]; 1 mg NA/5 mcg EE and 1/10 compared to 0.5 mg NA/2.5 mcg EE tablets): slightly more than proportional to dose; average steady-state concentrations (Css) [2]: 2.6 ng/mL; CL/F ([3]; Single-Dose (Day 1), 1 mg NA/10 mcg EE tablets, Mean (SD)): 588 (416) mL/min; CL/F ([3]; Steady-State (Day 87), 1 mg NA/10 mcg EE tablets, Mean (SD)): 226 (139) mL/min; Cmax [3, 5]: 6 ng/mL; AUC(0-t) [3, 5]: 29.7 ng·h/mL; Tmax ([3]; plasma, oral, Single-Dose (Day 1), 1 mg NA/10 mcg EE tablets, Mean (SD), read-out: Tmax): 1.8 h; half-life [3, 5]: 10.3 h; Cmax [3, 6]: 10.7 ng/mL; AUC(0-t) [3, 6]: 81.8 ng·h/mL; Tmax ([3]; plasma, oral, Steady-State (Day 87), 1 mg NA/10 mcg EE tablets, Mean (SD), read-out: Tmax): 1.8 h; half-life [3, 6]: 13.3 h; Vd [4]: 2 to 4 L/kg
